In brackets after ≈: the same amount, converted by molar mass. Read-outs that look alike come from different tables or passages of the source. Where a SMILES comes first, the peptide text is derived from it. [ ]: non-standard residue; d: D form. Gly(N(CH2)2(3-indolyl)) = O=C(O)CNCCc1c[nH]c2ccccc12; Gly(N-CH2CH2-imidazol-4-yl) = O=C(O)CNCCc1c[nH]cn1; Nspe = C[C@H](NCC(=O)O)c1ccccc1; Nlys = NCCCCNCC(=O)O
Legend:
[1] = system: E. coli ATCC25922; details: for antimicrobial activity (in words): E. coli and S. aureus, compared to Peptoid 1, parent peptoid or TFA salt as stated
Summary of the method: (§1)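 Cation-adjusted MHB2 cultures (18 h, subcultured 4 h) adjusted to 2×10^5–5×10^5 CFU/mL in medium with 0.02% BSA and 0.001% acetic acid.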

[2] = system: S. aureus ATCC 25923
Summary of the method: as §1

[3] = HPLC to confirm peptoid decomposition after counter ion substitution; assay type: physicochemical; details: HPLC at 220 nm; HCl and AcOH
Procedure: FIGS. 76 to 83 are the HPLC results for Peptoids 1, 10, 11, 14, 15, 29, 32 and 37 of the present inventive concept to confirm the decomposition of the peptoids after counter ion substitution using (a) HCl and (b) AcOH.
Referring to FIGS. […], HPLC was performed for Peptoids 1, 10, 11, 14, 15, 29, 32 and 37 of the present inventive concept. Since the chloride (HCl) is a stronger acid than TFA, it can decompose acid-vulnerable peptoid compounds.

[4] = system: red blood cells; assay: Hemolysis assay; assay type: cell-based, Sprague-Dawley mouse
Summary of the method: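 Peptoid is mixed with 10% (v/v) PBS-washed erythrocytes (male Sprague-Dawley […], 13 weeks) and held 1 h at 37 °C. Hemolysis is calculated from 540 nm absorbance of the supernatant, with PBS as 0% and Triton X-100 as 100%.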

[5] = Tables 11-13, 24 hours at 37° C., maximum concentration 25 μM
[6] = Table 18, TFA salt vs counter ion-substituted (HCl, AcOH) peptoids

SMILES | MIC E. coli ATCC25922 ([1]; ATCC25922) [µM] | MIC S. aureus ATCC 25923 ([2]; ATCC 25923) [µM] | antimicrobial activity (in words) [1] | MIC E. coli ATCC25922 [1, 5] [µM] | MIC S. aureus ATCC 25923 [2, 6] [µM] | MIC S. aureus ATCC 25923 [2, 5] [µM] | peptoid decomposition after counter ion substitution (in words) [3] | MIC E. coli ATCC25922 [1, 6] [µM] | HD10 [4] | HD50 [4] | Hmax (100 μM) [4]
C[C@@H](c1ccccc1)N(CC(N)=O)C(=O)CN(C(=O)CN(CCCCN)C(=O)CN(C(=O)CN(C(=O)CN(CCCCN)C(=O)CN(C(=O)CN(C(=O)CN(CCCCN)C(=O)CN(CCc1c[nH]c2ccccc12)C(=O)CN(C(=O)CNCCCCN)[C@@H](C)c1ccccc1)[C@@H](C)c1ccccc1)[C@@H](C)c1ccccc1)[C@@H](C)c1ccccc1)[C@@H](C)c1ccccc1)[C@@H](C)c1ccccc1 [Peptoid 10, H-NLys-Nspe-NhTrp-NLys-Nspe-Nspe-NLys-Nspe-Nspe-NLys-Nspe-Nspe-NH2] | 3.1 (≈ 5.76 µg/mL) | – | antimicrobial activity was reduced | 3.1 (≈ 5.76 µg/mL) | 0.8 | 1.6 (≈ 2.97 µg/mL) | almost no peptoid decomposition occurred | – | – | – | –
C[C@@H](c1ccccc1)N(CC(N)=O)C(=O)CN(C(=O)CN(CCCCN)C(=O)CN(C(=O)CN(CCc1c[nH]c2ccccc12)C(=O)CN(CCCCN)C(=O)CN(CCc1c[nH]c2ccccc12)C(=O)CN(C(=O)CN(CCCCN)C(=O)CN(C(=O)CN(C(=O)CNCCCCN)[C@@H](C)c1ccccc1)[C@@H](C)c1ccccc1)[C@@H](C)c1ccccc1)[C@@H](C)c1ccccc1)[C@@H](C)c1ccccc1 [Peptoid 15, H-NLys-Nspe-Nspe-NLys-Nspe-NhTrp-NLys-NhTrp-Nspe-NLys-Nspe-Nspe-NH2] | – | 1.6 (≈ 3.04 µg/mL) | antimicrobial activity was reduced | 6.3 (≈ 12 µg/mL) | – | 1.6 (≈ 3.04 µg/mL) | almost no peptoid decomposition occurred | 3.1 | – | – | –
C[C@@H](c1ccccc1)N(CC(=O)N(CCCCN)CC(=O)N(CC(=O)N(CC(=O)N(CCCCN)CC(=O)N(CC(=O)N(CC(=O)N(CCCCN)CC(N)=O)[C@@H](C)c1ccccc1)[C@@H](C)c1ccccc1)[C@@H](C)c1ccccc1)[C@@H](C)c1ccccc1)C(=O)CN(C(=O)CN(CCCCN)C(=O)CN(CCc1c[nH]c2ccccc12)C(=O)CNCCc1c[nH]c2ccccc12)[C@@H](C)c1ccccc1 [Peptoid 37, H-NhTrp-NhTrp-NLys-Nspe-Nspe-NLys-Nspe-Nspe-NLys-Nspe-Nspe-NLys-NH2] (H-[Gly(N(CH2)2(3-indolyl))][Gly(N(CH2)2(3-indolyl))][Nlys][Nspe][Nspe][Nlys][Nspe][Nspe][Nlys][Nspe][Nspe][Nlys]-NH2) | 3.1 (≈ 5.88 µg/mL) | – | antimicrobial activity was reduced | 3.1 (≈ 5.88 µg/mL) | 1.6 | 1.6 (≈ 3.04 µg/mL) | almost no peptoid decomposition occurred | – | – | – | –
C[C@@H](c1ccccc1)N(CC(=O)N(CCCCN)CC(=O)N(CCc1c[nH]c2ccccc12)CC(=O)N(CCc1c[nH]c2ccccc12)CC(N)=O)C(=O)CN(CCc1c[nH]cn1)C(=O)CN(CCCCN)C(=O)CN(C(=O)CN(C(=O)CN(CCCCN)C(=O)CN(C(=O)CN(C(=O)CNCCCCN)[C@@H](C)c1ccccc1)[C@@H](C)c1ccccc1)[C@@H](C)c1ccccc1)[C@@H](C)c1ccccc1 [Peptoid 78] (H-[Nlys][Nspe][Nspe][Nlys][Nspe][Nspe][Nlys][Gly(N-CH2CH2-imidazol-4-yl)][Nspe][Nlys][Gly(N(CH2)2(3-indolyl))][Gly(N(CH2)2(3-indolyl))]-NH2) | 6.3 (≈ 11.9 µg/mL) | 6.3 (≈ 11.9 µg/mL) | – | – | – | – | – | – | >100.0/>100.0 | >100.0/>100.0 | 5.2 ± 0.2

Now from value to compound, other results behind:

MIC E. coli ATCC25922 ([1]; ATCC25922) [µM] | MIC S. aureus ATCC 25923 ([2]; ATCC 25923) [µM] | SMILES | antimicrobial activity (in words) [1] | MIC E. coli ATCC25922 [1, 5] [µM] | MIC S. aureus ATCC 25923 [2, 6] [µM] | MIC S. aureus ATCC 25923 [2, 5] [µM] | peptoid decomposition after counter ion substitution (in words) [3] | MIC E. coli ATCC25922 [1, 6] [µM] | HD10 [4] | HD50 [4] | Hmax (100 μM) [4]
6.3 (≈ 11.9 µg/mL) | 6.3 (≈ 11.9 µg/mL) | C[C@@H](c1ccccc1)N(CC(=O)N(CCCCN)CC(=O)N(CCc1c[nH]c2ccccc12)CC(=O)N(CCc1c[nH]c2ccccc12)CC(N)=O)C(=O)CN(CCCCN)C(=O)CN(CCc1c[nH]cn1)C(=O)CN(C(=O)CN(C(=O)CN(CCCCN)C(=O)CN(C(=O)CN(C(=O)CNCCCCN)[C@@H](C)c1ccccc1)[C@@H](C)c1ccccc1)[C@@H](C)c1ccccc1)[C@@H](C)c1ccccc1 [Peptoid 79] (H-[Nlys][Nspe][Nspe][Nlys][Nspe][Nspe][Gly(N-CH2CH2-imidazol-4-yl)][Nlys][Nspe][Nlys][Gly(N(CH2)2(3-indolyl))][Gly(N(CH2)2(3-indolyl))]-NH2) | – | – | – | – | – | – | >100.0/>100.0 | >100.0/>100.0 | 8.5 ± 0.6
12.5 (≈ 23.6 µg/mL) | 6.3 (≈ 11.9 µg/mL) | C[C@@H](c1ccccc1)N(CC(=O)N(CCCCN)CC(=O)N(CCc1c[nH]c2ccccc12)CC(=O)N(CCc1c[nH]c2ccccc12)CC(N)=O)C(=O)CN(CCCCN)C(=O)CN(CCCCN)C(=O)CN(C(=O)CN(C(=O)CN(CCc1c[nH]cn1)C(=O)CN(C(=O)CN(C(=O)CNCCCCN)[C@@H](C)c1ccccc1)[C@@H](C)c1ccccc1)[C@@H](C)c1ccccc1)[C@@H](C)c1ccccc1 [Peptoid 80] (H-[Nlys][Nspe][Nspe][Gly(N-CH2CH2-imidazol-4-yl)][Nspe][Nspe][Nlys][Nlys][Nspe][Nlys][Gly(N(CH2)2(3-indolyl))][Gly(N(CH2)2(3-indolyl))]-NH2) | – | – | – | – | – | – | >100.0/>100.0 | >100.0/>100.0 | 4.0 ± 0.5
6.3 (≈ 11.9 µg/mL) | 6.3 (≈ 11.9 µg/mL) | C[C@@H](c1ccccc1)N(CC(=O)N(CCCCN)CC(=O)N(CCc1c[nH]c2ccccc12)CC(=O)N(CCc1c[nH]c2ccccc12)CC(N)=O)C(=O)CN(CCCCN)C(=O)CN(CCCCN)C(=O)CN(C(=O)CN(C(=O)CN(CCCCN)C(=O)CN(C(=O)CN(C(=O)CNCCc1c[nH]cn1)[C@@H](C)c1ccccc1)[C@@H](C)c1ccccc1)[C@@H](C)c1ccccc1)[C@@H](C)c1ccccc1 [Peptoid 81] (H-[Gly(N-CH2CH2-imidazol-4-yl)][Nspe][Nspe][Nlys][Nspe][Nspe][Nlys][Nlys][Nspe][Nlys][Gly(N(CH2)2(3-indolyl))][Gly(N(CH2)2(3-indolyl))]-NH2) | – | – | – | – | – | – | >100.0/>100.0 | >100.0/>100.0 | 5.7 ± 0.1
